In patent US20240140957A1, “BRIDGED COMPOUNDS AS KRAS G12D INHIBITOR AND DEGRADER AND THE USE THEREOF” (BeiGene Switzerland GmbH, priority 2021, published 2024) one finds IC50 data, which are given here for 18 compounds.

The subject of assay [1] is pERK1/2 (THR202/TYR204) in AsPC-1 cells. As to the kind of experiment: pERK Assay (HTRF) in AsPC-1 cells. The settings on record: Homo sapiens, ASPC1, 2 h compound treatment. The format is cell-based.
The target in the next assay is GDP-loaded WT KRAS (Homo sapiens, UniProt P01116). Put plainly: KRAS WT Probe Displacement Assay. The format is binding. The settings on record: WT KRAS 3 nM, biotinylated probe 1 60 nM; read-out: KRAS WT Probe Displacement Assay IC50.
GDP-loaded WT KRAS, sequence (P01116 1-188 isoform P01116-2): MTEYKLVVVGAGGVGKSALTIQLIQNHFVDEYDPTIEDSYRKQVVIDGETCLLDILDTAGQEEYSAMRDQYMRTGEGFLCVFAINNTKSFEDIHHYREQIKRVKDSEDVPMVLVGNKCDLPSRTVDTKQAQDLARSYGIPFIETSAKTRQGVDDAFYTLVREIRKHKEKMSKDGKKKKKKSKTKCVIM
A further assay deals with GDP-loaded KRAS G12D (Homo sapiens, UniProt P01116, G12D). Put plainly: KRAS G12D Probe Displacement Assay. It is filed as binding. The conditions noted are these: KRAS G12D 0.5 nM, biotinylated probe 2 4 nM; read-out: KRAS G12D Probe Displacement Assay IC50.
GDP-loaded KRAS G12D, sequence (P01116 1-188 isoform P01116-2 G12D): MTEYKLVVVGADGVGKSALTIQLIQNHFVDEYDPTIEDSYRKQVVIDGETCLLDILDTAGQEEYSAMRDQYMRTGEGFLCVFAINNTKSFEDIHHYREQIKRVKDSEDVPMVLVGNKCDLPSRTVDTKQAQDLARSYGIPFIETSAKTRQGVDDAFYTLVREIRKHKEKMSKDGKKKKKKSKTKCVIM
A further assay has as its target KRAS G12D:SOS1 (Homo sapiens, UniProt P01116, G12D). Put plainly: KRAS G12D:SOS1 GDP TR-FRET assay. The format is binding. The conditions noted are these: GST-KRAS G12D 37.5 nM, GDP 10 μM, His-SOS1 18 nM.
Another assay concerns the target WT KRAS:SOS1 (Homo sapiens, UniProt P01116). As to the kind of experiment: KRAS WT:SOS1 GDP TR-FRET assay. It is filed as binding. The settings on record: GST-WT KRAS 37.5 nM, GDP 10 μM, His-SOS1 18 nM.

SMILES strings stand for the structures.

KRAS G12D:SOS1, sequence (P01116 1-188 isoform P01116-2 G12D): as above
WT KRAS:SOS1, sequence (P01116 1-188 isoform P01116-2): as the sequence (P01116 1-188 isoform P01116-2) above

Regarding `CC(F)CNC1C[C@H]2CC[C@@H]1N2c1nc(OC[C@@]23CCCN2C[C@H](F)C3)nc2c(F)c(-c3ccc(F)c4sc(N)nc34)c(C(F)(F)F)cc12` (stereo partly drawn) [Example E86, 7-fluoro-4-(8-fluoro-4-((1S,4R)-2-((2-fluoropropyl)amino)-7-azabicyclo[2.2.1]heptan-7-yl)-2-(((2R,7aS)-2-fluorotetrahydro-1H-pyrrolizin-7a(5H)-yl)methoxy)-6-(trifluoromethyl)quinazolin-7-yl)benzo[d]thiazol-2-amine], the IC50 stood at 320 nM in assay [1], 16 nM at GDP-loaded WT KRAS and 1.4 nM on GDP-loaded KRAS G12D.

`CN(C)CC1(COc2nc(N3CC4CCC(C3)N4)c3cc(Cl)c(-c4ccc(F)c5sc(N)nc45)c(F)c3n2)CC1` [Example E70, 4-(4-(3,8-diazabicyclo[3.2.1]octan-3-yl)-6-chloro-2-((1-((dimethylamino)methyl)cyclopropyl)methoxy)-8-fluoroquinazolin-7-yl)-7-fluorobenzo[d]thiazol-2-amine]: the IC50 is 927 nM in assay [1], 32 nM at GDP-loaded WT KRAS and 0.35 nM at GDP-loaded KRAS G12D.

Regarding `Nc1nc2c(-c3c(C(F)(F)F)cc4c(N5CC6CCC(C5)N6)nc(OC[C@@]56CCCN5C[C@H](F)C6)nc4c3Cl)ccc(Cl)c2s1` [Example E82, 4-(4-(3,8-diazabicyclo[3.2.1]octan-3-yl)-8-chloro-2-(((2R,7aS)-2-fluorotetrahydro-1H-pyrrolizin-7a(5H)-yl)methoxy)-6-(trifluoromethyl)quinazolin-7-yl)-7-chlorobenzo[d]thiazol-2-amine], the results for the concentration for half-maximal inhibition (IC50) (in assay [1]; at GDP-loaded WT KRAS; on GDP-loaded KRAS G12D) were 64 nM, 5 nM and 0.3 nM, respectively.

Regarding `Nc1nc2c(-c3c(C(F)(F)F)cc4c(N5C6CCC5CNC6)nc(OC[C@@]56CCCN5C[C@H](F)C6)nc4c3F)ccc(F)c2s1` [Example E60, 4-(4-(3,8-diazabicyclo[3.2.1]octan-8-yl)-8-fluoro-2-(((2R,7aS)-2-fluorotetrahydro-1H-pyrrolizin-7a(5H)-yl)methoxy)-6-(trifluoromethyl)quinazolin-7-yl)-7-fluorobenzo[d]thiazol-2-amine], the figures for the IC50 (in assay [1]; on GDP-loaded WT KRAS; at GDP-loaded KRAS G12D) were 34 nM, 2.6 nM and 0.27 nM, respectively.

Regarding `Cc1cc(N)nc(-c2c(F)cc3c(N4CC5CCC(C4)N5)nc(OC[C@@]45CCCN4C[C@H](F)C5)nc3c2F)c1C(F)(F)F` [Example E79, 6-(4-(3,8-diazabicyclo[3.2.1]octan-3-yl)-6,8-difluoro-2-(((2R,7aS)-2-fluorotetrahydro-1H-pyrrolizin-7a(5H)-yl)methoxy)quinazolin-7-yl)-4-methyl-5-(trifluoromethyl) pyridin-2-amine], the IC50 in assay [1] was 153 nM; on GDP-loaded WT KRAS, 178 nM; on GDP-loaded KRAS G12D it was 1.1 nM.

In the case of `Nc1nc2c(-c3c(C(F)(F)F)cc4c(N5CC6CCC(C5)N6)nc(OC[C@@]56CCCN5C[C@H](F)C6)nc4c3F)c(F)cc(F)c2s1` [Example E84, 4-(4-(3,8-diazabicyclo[3.2.1]octan-3-yl)-8-fluoro-2-(((2R,7aS)-2-fluorotetrahydro-1H-pyrrolizin-7a(5H)-yl)methoxy)-6-(trifluoromethyl)quinazolin-7-yl)-5,7-difluorobenzo[d]thiazol-2-amine], the IC50 in assay [1] was found to be 28 nM; at GDP-loaded WT KRAS it was 2.4 nM; at GDP-loaded KRAS G12D, 0.36 nM.

Consider `Nc1nc2c(-c3c(Cl)cc4c(N5CC6CCC(C5)N6)nc(OCC56CCCN5CC(F)C6)nc4c3F)ccc(F)c2s1` (stereo not drawn) [Example E54, 4-(4-(3,8-diazabicyclo[3.2.1]octan-3-yl)-6-chloro-8-fluoro-2-((2-fluorotetrahydro-1H-pyrrolizin-7a(5H)-yl)methoxy)quinazolin-7-yl)-7-fluorobenzo[d]thiazol-2-amine], for which the figures for the IC50 (in assay [1]; on GDP-loaded WT KRAS; on GDP-loaded KRAS G12D) were 205 nM, 7.5 nM and 0.35 nM, respectively.

Take `CN1C[C@H](F)CC1(C)COc1nc(N2CC3CCC(C2)N3)c2cc(Cl)c(-c3ccc(F)c4sc(N)nc34)c(F)c2n1` (stereo partly drawn) [Example E89, 4-(4-(3,8-diazabicyclo[3.2.1]octan-3-yl)-6-chloro-8-fluoro-2-(((4R)-4-fluoro-1,2-dimethylpyrrolidin-2-yl)methoxy)quinazolin-7-yl)-7-fluorobenzo[d]thiazol-2-amine]: the 50% inhibitory concentration (IC50) in assay [1] stood at 556 nM; at GDP-loaded WT KRAS, 121 nM; at GDP-loaded KRAS G12D, 2.4 nM.

`Cc1ccc(-c2c(C(F)(F)F)cc3c(N4CC5CCC(C4)N5)nc(OC[C@@]45CCCN4C[C@H](F)C5)nc3c2F)c2nc(N)sc12` [Example E73, 4-(4-(3,8-diazabicyclo[3.2.1]octan-3-yl)-8-fluoro-2-(((2R,7aS)-2-fluorotetrahydro-1H-pyrrolizin-7a(5H)-yl)methoxy)-6-(trifluoromethyl)quinazolin-7-yl)-7-methylbenzo[d]thiazol-2-amine]: the results for the 50% inhibitory concentration (IC50) (in assay [1]; on GDP-loaded WT KRAS; on GDP-loaded KRAS G12D) were 68 nM, 15.5 nM and 0.57 nM, respectively.

With `CNC1C[C@H]2CC[C@@H]1N2c1nc(OC[C@@H]2C[C@@H](F)CN2C)nc2c(F)c(-c3ccc(F)c4sc(N)nc34)c(Cl)cc12` (stereo partly drawn) [Example E59, 4-(6-chloro-8-fluoro-2-(((2S,4R)-4-fluoro-1-methylpyrrolidin-2-yl)methoxy)-4-((1S,4R)-2-(methylamino)-7-azabicyclo[2.2.1]heptan-7-yl)quinazolin-7-yl)-7-fluorobenzo[d]thiazol-2-amine], the figures for the IC50 (in assay [1]; on GDP-loaded WT KRAS; at GDP-loaded KRAS G12D) were 1400 nM, 390 nM and 14 nM, respectively.

As for `Nc1nc2c(-c3c(C(F)(F)F)cc4c(N5CC6CCC(C5)N6)nc(OC[C@@]56CCCN5C[C@H](F)C6)nc4c3F)cc(F)c(F)c2s1` [Example E85, 4-(4-(3,8-diazabicyclo[3.2.1]octan-3-yl)-8-fluoro-2-(((2R,7aS)-2-fluorotetrahydro-1H-pyrrolizin-7a(5H)-yl)methoxy)-6-(trifluoromethyl)quinazolin-7-yl)-6,7-difluorobenzo[d]thiazol-2-amine], the concentration for half-maximal inhibition (IC50) in assay [1] stood at 124 nM; at GDP-loaded WT KRAS, 5.6 nM; on GDP-loaded KRAS G12D, 0.21 nM.

For the compound `CN(C)CC1(COc2nc(N3CC4CCC(C3)N4)c3cc(Cl)c(-c4ccc(F)c5sc(N)nc45)c(F)c3n2)CCC1` [Example E68, 4-(4-(3,8-diazabicyclo[3.2.1]octan-3-yl)-6-chloro-2-((1-((dimethylamino)-methyl)cyclobutyl)methoxy)-8-fluoroquinazolin-7-yl)-7-fluorobenzo[d]thiazol-2-amine], the IC50 amounted to 590 nM in assay [1], 45 nM on GDP-loaded WT KRAS and 0.58 nM at GDP-loaded KRAS G12D.

Take `Nc1nc2c(-c3c(C(F)(F)F)cc4c(N5C6CNCC5COC6)nc(OC[C@@]56CCCN5C[C@H](F)C6)nc4c3F)ccc(F)c2s1` [Example E55, 4-(4-(3-oxa-7,9-diazabicyclo[3.3.1]nonan-9-yl)-8-fluoro-2-(((2R,7aS)-2-fluorotetrahydro-1H-pyrrolizin-7a(5H)-yl)methoxy)-6-(trifluoromethyl)quinazolin-7-yl)-7-fluorobenzo[d]thiazol-2-amine]: the half-maximal inhibitory concentration (IC50) in assay [1] amounted to 59 nM; on GDP-loaded WT KRAS it was 2.7 nM; at GDP-loaded KRAS G12D, 0.25 nM.

Regarding `CC1(N2CCCCC2)CN(c2nc(N3CC4CCC(C3)N4)c3cc(Cl)c(-c4ccc(F)c5sc(N)nc45)c(F)c3n2)C1` [Example E62, 4-(4-(3,8-diazabicyclo[3.2.1]octan-3-yl)-6-chloro-8-fluoro-2-(3-methyl-3-(piperidin-1-yl)azetidin-1-yl)quinazolin-7-yl)-7-fluorobenzo[d]thiazol-2-amine], the half-maximal inhibitory concentration (IC50) is 740 nM in assay [1], 660 nM on GDP-loaded WT KRAS and 9.6 nM on GDP-loaded KRAS G12D.

On to `Nc1nc2c(-c3c(C(F)(F)F)cc4c(N5CC6CC(C5)N6)nc(OC[C@@]56CCCN5C[C@H](F)C6)nc4c3F)ccc(F)c2s1` [Example E74, 4-(4-(3,6-diazabicyclo[3.1.1]heptan-3-yl)-8-fluoro-2-(((2R,7aS)-2-fluorotetrahydro-1H-pyrrolizin-7a(5H)-yl)methoxy)-6-(trifluoromethyl)quinazolin-7-yl)-7-fluorobenzo[d]thiazol-2-amine], for which the IC50 in assay [1] was 349 nM; on GDP-loaded WT KRAS it was 4.8 nM; at GDP-loaded KRAS G12D it was 0.42 nM.

For `C[C@@H](CN1CCOCC1)Oc1nc(N2CC3CCC(C2)N3)c2cc(Cl)c(-c3ccc(F)c4sc(N)nc34)c(F)c2n1` [Example E29, 4-(4-(3,8-diazabicyclo[3.2.1]octan-3-yl)-6-chloro-8-fluoro-2-(((S)-1-morpholinopropan-2-yl)oxy)quinazolin-7-yl)-7-fluorobenzo[d]thiazol-2-amine], the IC50 turned out to be 903 nM in assay [1], 5.9 nM against KRAS G12D:SOS1 and 453 nM on WT KRAS:SOS1.

As for `CN(C)CCCOc1nc(N2CC3CC2CN3)c2cc(Cl)c(-c3ccc(F)c4sc(N)nc34)c(F)c2n1` (stereo not drawn) [Example E3, 4-(4-(2,5-diazabicyclo[2.2.1]heptan-2-yl)-6-chloro-2-(3-(dimethylamino)propoxy)-8-fluoroquinazolin-7-yl)-7-fluorobenzo[d]thiazol-2-amine], the concentration for half-maximal inhibition (IC50) in assay [1] is greater than 10000 nM; against KRAS G12D:SOS1, 68 nM; at WT KRAS:SOS1, 3290 nM.

As for `C[C@@H](CN1CCCCC1)Oc1nc(N2CC3CC(C2)N3)c2cc(Cl)c(-c3ccc(F)c4sc(N)nc34)c(F)c2n1` [Example E12], the figures for the IC50 (in assay [1]; against KRAS G12D:SOS1; on WT KRAS:SOS1) were 2020 nM, 3.5 nM and 124 nM, respectively.
